Experimental data as given in PMC9146423, “Discovery of Nitro-azolo[1,5-a]pyrimidines with Anti-Inflammatory and Protective Activity against LPS-Induced Acute Lung Injury” (Pharmaceuticals, 2022).

Assays:
[1] = system: LPS-stimulated peritoneal macrophages of C57bl/6j mice; test: Inhibition of LPS-induced NO synthesis (nitrite accumulation, Griess reagent) in peritoneal macrophages; type: cell-based, mouse; conditions: 100 μM; m ± SD
Protocol: (§1) Peritoneal macrophages (PM) were isolated from the peritoneal exudate of 30 male C57bl/6j mice. To accumulate PM, 1 mL of 3% peptone solution was injected intraperitoneally. After 3 days, the mice were euthanized by cervical dislocation. Cells of peritoneal exudate were obtained by aseptic washing of the abdominal cavity with 5 mL of sterile Hanks’s solution (+4–6 °C) without calcium and magnesium ions. The total number and viability of cells were assessed in a Goryaev counting chamber (Russia) with a 0.4% trypan blue staining (Sigma-Aldrich, St. Louis, MO, USA). The cell concentration was adjusted to 1.0 × 10^6 cells/mL in DMEM (Gibco) supplemented with 2 mM L-glutamine (Gibco, Waltham, MA, USA), 10% heat-inactivated fetal bovine serum (BioClot, Bavaria, Germany), 100 U/mL penicillin, and […] streptomycin (Gibco) and plated 200 μL/well in 96-well transparent plates (SPL Life Sciences Co., Ltd., Pocheon-si, Korea). After 2 h at 37 °C in a humidified atmosphere with 5% CO2, the wells were washed to remove non-adherent cells. After 24 h of incubation, 20 μL of the supernatants were substituted with 20 μL of solutions of test compounds, followed by E. coli O127:B8 LPS (100 ng/mL final concentration) after 30 min. The experiments were run in 3 independent replicates.
The accumulation of the nitrite anion (a stable end product of NO decomposition produced by iNOS) in supernatants was determined using a standard Griess reagent. Briefly, 50 μL of supernatants were collected 22 h after incubation of PM, and the test and control compounds were mixed with 50 μL of 1% […] in 2.5% H3PO4 and 50 μL of 0.1% N-(1-naphthyl) ethylenediamine in 2.5% H3PO4. After incubation at 23 °C for 10 min in an orbital shaker, the optical density was determined at a wavelength of 550 nm with a microplate reader Infinite M200 PRO (Tecan, Grödig, Austria).

[2] = system: LPS-stimulated peritoneal macrophages of C57bl/6j mice; test: Cell viability of LPS-stimulated macrophages, MTT test; type: cell-based; conditions: male, C57bl/6j, mouse, 24 h, 100 μM
Protocol: as §1
The activity of lactate dehydrogenase (LDH) in a cell culture medium served as a marker of membrane permeability and cell death. Aliquotes of supernatants were taken after 24 h of inoculation with test compounds, mixed with 250 μL of […] NADH solution in 54 mM phosphate-buffered saline (pH 7.5). Then, 25 μL of a 6.48 mM pyruvate solution was added to the mixture. The optical density was followed at a wavelength of 340 nm for 20 min. The MTT-test was performed 24 h after incubations of cells with tested compounds. Briefly, 20 μL of MTT solution was added to each well, incubated at 37 °C in a humidified atmosphere containing 5% CO2 for 4 h. The culture medium was removed, the cells were lysed, and formazan crystals were dissolved in 150 μL DMSO. The plates were shaken at room temperature for 10 min, and the optical density was measured in a microplate reader Infinite M200 PRO (Tecan, Grödig, Austria) at a wavelength of 565 nm.

[3] = system: peritoneal macrophages of C57bl/6j mice; test: Yeast phagocytosis assay and macrophage spreading; type: cell-based, mouse
Protocol: Next, we evaluated lead compound 9g for immunodepressant activity in parallel with the reference drug dexamethasone. Yeast phagocytosis was assessed by microscopic examination as the number of phagocytes per 100 macrophages and as the number of phagocytosed yeast cells in each phagocyte. Cell viability was assessed as lactate dehydrogenase activity in cell supernatants, which correlates with increased cell membrane permeability.
Peritoneal macrophages of C57bl/6j mice were cultured in a 24-well plate at a volume of 500 μL/well (1 × 10^5 cells/mL) for 24 h. Test compounds or DMSO were added to wells in triplicate followed by 50 μL of 1% yeast suspension, and the plates were incubated for 40 min. After 24 or 72 h, the medium was removed. The cells were fixed with May–Grunwald methanol dye and stained with Azur-Eosin in Romanovsky’s modification for 45 min at room temperature, washed, air-dried, and analyzed using a microscope Mikmed-6 (Russia), equipped with a digital camera. The study was performed in three technical replicates and two series; 100 macrophages were processed in each sample to count the captured yeast cells. Macrophage spreading was assessed as a number of pseudopodia.

C57BL/6J mice = test: LPS-induced acute lung injury in mice; type: in vivo, mouse
Protocol: The randomization of C57bl/6j mice into experimental and control groups was based on body weight and behavioral activity assessed in an open field test 24 h before the start of the experiment. The next day, mice were treated with vehicle or test compounds 1 h before intratracheal instillation of LPS solution in sterile saline.
The randomization of C57BL/6J mice was performed by body weight and motor activity in an open field test. Dexamethasone (5 mg/kg) and 9g (30 mg/kg) were administered intraperitoneally in 10 mL/kg sterile saline. The control animals received an equal volume of the vehicle. After 1 h, the mice were anesthetized with isoflurane inhalation until their breathing rate was decreased. The mice were suspended by the front incisors on an inclined surgical table, the tongue was pulled out with narrow curved tweezers, and 1 mg/mL of E. coli O127:B8 LPS (Sigma-Aldrich, St. Louis, MO, USA) in 1 mL/kg sterile saline was injected into the back of the oropharynx. Intact control animals received an equal volume of sterile saline similarly.
The animals were placed in the center of a round open field with an arena of 44 cm diameter and 32 cm wall height under 300 lux lighting. During 5 min of observation, horizontal motor activity, vertical motor activity, time spent in the central part, the number of exits to the central part, and exploratory activity parameters were recorded. Body temperature was determined rectally.
The mice were anesthetized with 500 mg/kg chloral hydrate (Sigma-Aldrich, St. Louis, MO, USA) intraperitoneally 24 h after LPS administration. Blood was taken by intracardiac puncture in test tubes with heparin. The blood samples were centrifuged at 1000 g and 4 °C for 15 min on a 2–16PK centrifuge (Sigma, Germany), and plasma was separated and stored at −80 °C until the assay. Thoracotomy was performed, the ligature was applied to the left bronchus and the trachea was cannulated with a 20 G needle. The right lung was washed twice with 0.7 mL of warm sterile saline. After combining aliquots, the bronchoalveolar lavage (BAL) was centrifuged at 800 g and 4 °C for 10 min. The supernatant was separated and stored at −80 °C until the assay. The residual cell pellet was resuspended in 50 μL of PBS for further study. The left lung was washed in saline and placed in 10% buffered formalin for morphological evaluation.
The total number of leukocytes in heparinized blood was determined after staining with methylene blue in Goryaev’s counting chamber at ×100 magnification. Smears of blood and BAL cell pellets were air-dried, fixed according to May–Grunwald for 3 min, and stained according to Romanowsky–Giemsa. After 30 min, the slides were washed, air-dried, and examined with immersion objective (×1000 total magnification). On each slide, a total of at least 100 cells were calculated.
The concentration of total protein in BAL supernatants was determined spectrophotometrically with the pyrogallol red method, and the protein in the blood plasma was determined with the biuret method using commercial kits (Vital, Saint Petersburg, Russia) and bovine serum albumin as the standard. The lung permeability index was calculated as the protein concentration in the BAL to plasma ratio.
Morphological markers of inflammation in lung tissue were assessed in a semi-quantitative way on paraffin sections stained with hematoxylin and eosin. The sections were examined under a light microscope (Zeiss, Germany) by a double-blind method. The score of inflammation was determined as follows: 0—the presence of single inflammatory cells; 1—weak inflammation, inflammatory cells infiltrate no more than 10% of the lung tissue, including interalveolar cell partitions; 2—moderate inflammation, inflammatory cells infiltrate no more than 50% of the structures of the lung, but the interstitial tissue is identified; 3—severe inflammation, inflammatory cells densely infiltrate more than 50% of the lung tissue and airways.

[4] = 24 h after LPS, dexamethasone 5 mg/kg, 9g 30 mg/kg i.p.

In the case of `C[C@@H]1C[C@H]2[C@@H]3CCC4=CC(=O)C=C[C@]4(C)[C@@]3(F)[C@@H](O)C[C@]2(C)[C@@]1(O)C(=O)CO` [Dexamethasone, reference compound], the “Inhibition of NO Synthesis vs. LPS Control” value [1] is reported as 90.91 ± 5.53 %, the “Cell Viability vs. LPS Control, MTT Test” value [2] is reported as 104.21 ± 2.18% and the Suppression of phagocytosis ([3]; after 24-h of incubation, data not shown) is reported as “significantly suppressed phagocytosis”. For the same molecule, the “Decrease of the mean number of phagocytosed yeast cells” value ([3]; after 72 h of incubation) was 59%, the Blood leukocyte subpopulations (C57BL/6J mice; 24 h after LPS) was “normalized leukocyte subpopulations to the values of intact animals” and the “CD68+ cells in lung tissue, immunostaining” value (C57BL/6J mice; 24 h after LPS) was “rarely detected”. For the same molecule, the “LPS-induced lung lesions, histologic scoring (hemorrhage and neutrophil infiltration)” value (C57BL/6J mice; 24 h after LPS, H&E, semi-quantitative) was “significantly ameliorated”, the “Blood plasma IL-6 level” value (C57BL/6J mice; [4]) was “normalized the blood plasma IL-6 level” and the “Permeability of pulmonary vessels (lung permeability index)” value (C57BL/6J mice; [4]) was “prevent the increase in permeability of pulmonary vessels”. For the same molecule, the “Horizontal motor activity, open field test” value (C57BL/6J mice; 24 h after LPS, dexamethasone 5 mg/kg, 9g 30 mg/kg i.p. 1 h before LPS) was “significant improvement”, the “Segmented neutrophils count in BAL (in words)” value (C57BL/6J mice; 24 h after LPS, monocytes in BAL increased) was “significantly decreased the segmented neutrophils count” and the “Spleen mass and lymphocyte content (markers of immunodepression)” value (C57BL/6J mice; LPS-treated mice, dexamethasone 5 mg/kg, 9g 30 mg/kg i.p.) was “significantly reduced”. For the same molecule, the LPS-induced hypothermia (C57BL/6J mice; body temperature determined rectally) was “attenuated LPS-induced hypothermia”, the “Segmented neutrophils, share of BAL cells” value (C57BL/6J mice; bronchoalveolar lavage 24 h after LPS, dexamethasone 5 mg/kg, 9g 30 mg/kg i.p.) was 22.5% and the “Number of center entries and time in the center, open field test” value (C57BL/6J mice; dexamethasone 5 mg/kg, 9g 30 mg/kg i.p.) was “restored the number of center entries and time in the center to intact levels”.
